Among the data in ChEMBL document CHEMBL4602619, “Covalent inactivation of Mycobacterium thermoresistibile inosine-5'-monophosphate dehydrogenase (IMPDH)” (Bioorg Med Chem Lett, 2020) are Activity values, retold here.

This assay concerns Mycobacterium thermoresistibile. The experiment in a line: Covalent binding affinity to Mycobacterium thermoresistibile IMPDH deltaCBS variant assessed as adduct formation at Cys341 by measuring 330 Da shift of increment in protein mass measured under denaturing conditions by ESI-MS spectral analysis.

SMILES strings stand for the structures. Active and inactive are the calls of the source. No cut-off for these calls is given here.

In the case of `O=P(O)(O)OC[C@H]1O[C@@H](n2cnc3c(Cl)ncnc32)[C@H](O)[C@@H]1O`, the result was Active.
